Data as given in ChEMBL document CHEMBL1201862, “PubChem BioAssay data set” (2004).
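These data come from cells grown in 96-well plates and exposed to compound for 48 hours at five concentrations. The concentration for 50% growth inhibition is given as GI50.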 The source made the active and inactive calls. Cut-off read from the data, not from the text of the source: active = GI50 up to about 1.1 µM and inactive = higher.

Key:
Test in all cases: growth of human tumour cells (NCI), 48 h
[1] = tested on: T47D
[2] = tested on: LXFL 529
[3] = tested on: DMS-273
[4] = tested on: HOP-18
[5] = tested on: KM-20L2
[6] = tested on: DLD-1
[7] = tested on: M19-MEL
[8] = tested on: RXF 631
[9] = tested on: XF498

Compound | GI50 [1] | GI50 [5] | GI50 [6] | GI50 [7] | further results
CCCCc1c(C(=O)OC(C)(C)C)cc(C#Cc2cc(C(=O)OC(C)(C)C)c(CCCC)c(C(=O)OC(C)(C)C)c2)cc1C(=O)OC(C)(C)C | > 100 µM (inactive) |  |  |  | 
N=C(N)N/N=C/c1c[nH]c2ccccc12 |  | > 100 µM (inactive) | > 100 µM (inactive) |  | GI50 [2]: > 100 µM (inactive); GI50 [3]: > 100 µM (inactive); GI50 [4]: > 100 µM (inactive)
C[C@H]1C=C2[C@@H]3CC(C)(C(=O)O)CC[C@]3(C)CC[C@]2(C)[C@]2(C)CC[C@H]3C(C)(C)[C@@H](OC(=O)c4cccc5c(=O)c6ccccc6[nH]c45)CC[C@]3(C)[C@@H]12 (stereo partly drawn) | 26.9 µM (inactive) |  |  |  | 
Cc1ccc([S+](c2ccccc2)c2cc(C)ccc2C)cc1 (stereo not drawn) |  |  | 1.81 µM (inactive) | 1.62 µM (inactive) | GI50 [3]: 0.859 µM (active); GI50 [4]: 1.38 µM (inactive)
c1ccc2sc(SCCSc3nc4ccccc4s3)nc2c1 | > 100 µM (inactive) |  |  |  | 
CC(C)(C)C1CCC2(CC1)CCN(CCCN1CCOCC1)CC2 | 42.9 µM (inactive) | 2.18 µM (inactive) | 24.4 µM (inactive) | 12.5 µM (inactive) | GI50 [2]: 8.36 µM (inactive); GI50 [3]: 19.3 µM (inactive); GI50 [8]: 14.4 µM (inactive)
CC(=NNC(=S)Nc1ccccc1)c1cccc(C(C)=NNC(=S)Nc2ccccc2)n1 | 5.96 µM (inactive) |  |  |  | 
CC(=O)O[C@@H]1C(=O)N(c2ccccc2)[C@@H]1c1cc2ccccc2c2ccccc12 | 18.7 µM (inactive) |  |  |  | 
CCOC(=O)c1cc(/C=C/C(C)=C/C(=O)OC)oc1C |  | > 100 µM (inactive) | > 100 µM (inactive) | > 100 µM (inactive) | GI50 [2]: > 100 µM (inactive); GI50 [9]: > 100 µM (inactive)
O=[N+]([O-])C(/C=C(\Cl)n1nnc2ccccc21)=C(/Cl)n1nnc2ccccc21 | > 100 µM (inactive) |  |  |  | 
O=c1[nH]nc(Cc2ccccc2)n1/N=C/c1ccc(/C=N/n2c(Cc3ccccc3)n[nH]c2=O)cc1 | > 100 µM (inactive) |  |  |  | 
O=C(O)CCc1nc2ccccc2[nH]1 [PROCODAZOLE] | > 100 µM (inactive) |  |  |  | 
C[C@H](CCc1nc(C#N)c(N)o1)[C@H]1CC[C@H]2[C@@H]3[C@@H](O)CC4C[C@@H](O)CC[C@]4(C)[C@H]3C[C@@H](O)[C@]12C (stereo partly drawn) | 27.5 µM (inactive) |  |  |  | 
COc1ccc2c3c1OC1C(=O)C=CC4(O)C(C2)NCC[C@@]314 (stereo partly drawn) | 0.968 µM (active) |  |  |  | 
CC1(C)C2C=C(CCN3CCOCC3)CC1C2 (stereo not drawn) | > 100 µM (inactive) |  |  |  | 
Cc1cc(=O)oc2cc(OC(=O)N(CCCl)CCCl)ccc12 | 62.4 µM (inactive) |  |  |  | 

Compound | GI50 [1] | GI50 [5] | GI50 [6] | GI50 [7] | further results
CC(=O)Nc1ccc2c(C)c3c4ccccc4n(C)c3nc2n1 | 18.4 µM (inactive) |  |  |  | 
Clc1ccc(C2=Nc3ccccc3SC(c3cccs3)C2)cc1 (stereo not drawn) |  | 16.6 µM (inactive) | 10.1 µM (inactive) | 15.2 µM (inactive) | GI50 [2]: 17.5 µM (inactive); GI50 [3]: 14 µM (inactive); GI50 [4]: 18.6 µM (inactive); GI50 [9]: 16.1 µM (inactive)
CCC1c2cc3n(c(=O)c2COC1O)Cc1c-3nc2ccccc2c1Cl (stereo not drawn) |  | > 69.7 µM (inactive) | 99.1 µM (inactive) | 69.3 µM (inactive) | GI50 [2]: > 80.7 µM (inactive); GI50 [3]: 4.4 µM (inactive); GI50 [4]: > 75.7 µM (inactive); GI50 [9]: > 100 µM (inactive)
COc1cc(/C=N\c2ccc(C(C)C)cc2)cc(OC)c1OC |  | > 100 µM (inactive) | > 100 µM (inactive) | > 92 µM (inactive) | GI50 [2]: 99.5 µM (inactive); GI50 [3]: > 72.4 µM (inactive); GI50 [4]: > 100 µM (inactive); GI50 [9]: > 100 µM (inactive)
CCOC(=O)C(O)(NC(=O)Nc1ccc(F)cc1)C(F)(F)F (stereo not drawn) | > 100 µM (inactive) |  |  |  | 
CO[C@H](C(=O)O[C@H]1C(=O)N2CC[C@@H]3CCC[C@H]1C32C)c1ccccc1 (stereo partly drawn) |  | > 100 µM (inactive) | > 100 µM (inactive) | > 100 µM (inactive) | GI50 [2]: > 100 µM (inactive)
COc1ncc(C#CC(=O)c2ccccc2)c(OC)n1 | 5.83 µM (inactive) |  |  |  | 
COc1cc(NS(=O)(=O)c2ccc(C)cc2)c2nccnc2c1 |  | 32.1 µM (inactive) | 30.3 µM (inactive) | 19.5 µM (inactive) | GI50 [2]: 20.8 µM (inactive); GI50 [3]: 23.6 µM (inactive); GI50 [4]: 93.5 µM (inactive); GI50 [9]: 29 µM (inactive)
Cc1c2c(n3c(nc4ccccc43)c1C#N)NCC2 | > 10 µM (inactive) |  |  |  | 
Cc1ccc(C)c(COCCOCn2cc(Br)c(N)nc2=O)c1 | > 100 µM (inactive) |  |  |  | 
O=C(c1ccccc1)N1N=C(C(F)(F)F)CC1(O)C(F)(F)F (stereo not drawn) | > 100 µM (inactive) |  |  |  | 
OC(c1cc2ccccc2[nH]1)C1(c2cccnc2)SCCCS1 (stereo not drawn) | 69.7 µM (inactive) |  |  |  | 
CCOC(=O)/C(=C\c1ccccc1)C(=O)O |  | > 100 µM (inactive) |  | > 100 µM (inactive) | GI50 [3]: > 100 µM (inactive); GI50 [9]: > 100 µM (inactive)
O=c1c2cc(Br)ccc2n(C2OC(CO)C(O)C(O)C2O)c(=S)n1-c1ccccc1 (stereo not drawn) |  | > 100 µM (inactive) | > 100 µM (inactive) | > 100 µM (inactive) | GI50 [2]: 74.3 µM (inactive); GI50 [4]: > 100 µM (inactive); GI50 [9]: 50.5 µM (inactive)
O=C(c1ccc(Cl)c(Cl)c1)N(Cc1cccnc1)C(=S)N(Cc1cccnc1)C(=O)c1ccc(Cl)c(Cl)c1 | 26.7 µM (inactive) |  |  |  | 
